Tests used:
Assay type in all cases: cell-based
NK1 = NK1 (Homo sapiens, UniProt P25103); experiment: Signal transduction (ST), intracellular Ca++ (FLIPR), NK1 antagonistic activity; settings: read-out: pIC50 NK1 (converted)
Procedure, shortened: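 Antagonist IC50 was fitted by non-linear regression of peak intracellular Ca++ signals measured on FLIPR after agonist challenge. Beforehand, Fluo3-loaded confluent cells received antagonists over a concentration range for 20 min at room temperature in Ca++ Krebs buffer, pH 7.4.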

NK3 = target: T1, NK3 (Homo sapiens, UniProt P29371); experiment: Signal transduction (ST), intracellular Ca++ (FLIPR), NK3; settings: read-out: pIC50 NK3 (converted)
T1 sequence (P29371 1-465): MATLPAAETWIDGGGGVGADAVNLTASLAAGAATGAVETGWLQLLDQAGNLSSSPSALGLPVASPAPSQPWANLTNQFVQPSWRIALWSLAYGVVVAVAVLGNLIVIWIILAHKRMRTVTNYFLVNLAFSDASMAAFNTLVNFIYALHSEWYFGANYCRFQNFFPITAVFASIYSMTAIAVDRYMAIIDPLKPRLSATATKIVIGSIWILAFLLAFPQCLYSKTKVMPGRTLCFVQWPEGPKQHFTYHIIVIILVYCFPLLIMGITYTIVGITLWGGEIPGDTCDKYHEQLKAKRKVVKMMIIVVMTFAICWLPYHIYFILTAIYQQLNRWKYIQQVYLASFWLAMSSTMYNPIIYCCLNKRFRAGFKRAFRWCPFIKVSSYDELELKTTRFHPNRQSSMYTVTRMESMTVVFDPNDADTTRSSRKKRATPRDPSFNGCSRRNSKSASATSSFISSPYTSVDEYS

NK2 = target: T2, NK2 (Homo sapiens, UniProt P21452); experiment: Signal transduction (ST), intracellular Ca++ (FLIPR), NK2; settings: read-out: pIC50 NK2 (converted)
T2 sequence (P21452 1-398): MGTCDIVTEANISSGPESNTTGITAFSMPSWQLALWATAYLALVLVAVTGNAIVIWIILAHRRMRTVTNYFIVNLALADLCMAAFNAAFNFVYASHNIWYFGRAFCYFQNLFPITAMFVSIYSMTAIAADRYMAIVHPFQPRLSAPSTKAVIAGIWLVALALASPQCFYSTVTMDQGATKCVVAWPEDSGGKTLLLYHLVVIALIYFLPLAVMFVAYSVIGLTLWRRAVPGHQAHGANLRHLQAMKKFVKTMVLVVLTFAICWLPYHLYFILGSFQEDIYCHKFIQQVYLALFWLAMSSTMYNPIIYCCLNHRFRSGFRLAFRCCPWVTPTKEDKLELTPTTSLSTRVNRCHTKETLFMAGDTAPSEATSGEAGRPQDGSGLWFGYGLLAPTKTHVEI
Procedure: [The procedure below names another target; the source lists this target under the same test.] This test evaluates in vitro functional NK1 antagonistic activity. For the measurements of intracellular Ca^++ concentrations the cells were grown on 96-well (black wall/transparent bottom) plates from Costar for 2 days until they reached confluence. The cells were loaded with 2 μM Fluo3 in DMEM containing 0.1% BSA and 2.5 mM probenecid for 1 h at 37° C. They were washed 3× with a Krebs buffer (140 mM NaCl, 1 mM MgCl2×6H2O, 5 mM KCl, 10 mM glucose, 5 mM HEPES; 1.25 mM CaCl2; pH 7.4) containing 2.5 mM probenecid and 0.1% BSA (Ca^++-buffer). The cells were preincubated with a concentration range of antagonists for 20 min at RT and Ca^++-signals after addition of the agonists were measured in a Fluorescence Image Plate Reader (FLIPR from Molecular Devices, Crawley, England). The peak of the Ca^++-transient was considered as the relevant signal and the mean values of corresponding wells were analysed as described below.
The sigmoidal dose response curves were analysed by computerised curve-fitting, using the GraphPad Program. […] For antagonist responses the IC50-value was calculated using non-linear regression.
The last columns indicates—without being limited therefore—for which the compounds might be most suitable. Of course, since for some neurokinin receptors no data was determined, it is obvious that these compounds might be attributed to another suitable use.

Sequence of NK1 (P25103 whole entry): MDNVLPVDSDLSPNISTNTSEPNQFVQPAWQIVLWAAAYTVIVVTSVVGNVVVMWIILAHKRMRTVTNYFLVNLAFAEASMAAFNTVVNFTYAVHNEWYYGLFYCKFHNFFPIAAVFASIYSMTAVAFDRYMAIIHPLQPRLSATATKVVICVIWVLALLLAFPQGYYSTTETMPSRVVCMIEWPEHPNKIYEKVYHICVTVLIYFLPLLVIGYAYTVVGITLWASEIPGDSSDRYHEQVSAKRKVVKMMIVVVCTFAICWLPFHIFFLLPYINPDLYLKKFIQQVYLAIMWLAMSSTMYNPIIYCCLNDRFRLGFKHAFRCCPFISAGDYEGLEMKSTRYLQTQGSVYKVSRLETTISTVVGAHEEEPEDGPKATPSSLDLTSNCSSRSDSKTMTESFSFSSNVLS

SMILES	IC50 (NK1)	IC50 (NK3)	IC50 (NK2)
Cn1cccc1C(=O)N1CCC(N2CCN(C3CCN(C(=O)c4cc(C(F)(F)F)cc(C(F)(F)F)c4)C(Cc4ccc(F)c(F)c4)C3)CC2)C1 (single isomer, unassigned) [Compound 367]	0.01 µM	1.58 µM	1.26 µM
Cn1cccc(C(=O)N2CCC(N3CCN(C4CCN(C(=O)c5cc(C(F)(F)F)cc(C(F)(F)F)c5)C(Cc5ccc(F)c(F)c5)C4)CC3)C2)c1=O (single isomer, unassigned) [Compound 368]	0.01 µM	3.16 µM	3.16 µM
Cc1nnsc1C(=O)N1CCC(N2CCN(C3CCN(C(=O)c4cc(C(F)(F)F)cc(C(F)(F)F)c4)C(Cc4ccccc4)C3)CC2)C1 (single isomer, unassigned) [Compound 380]	0.00631 µM	1.58 µM	7.94 µM
O=C(C1CCCCC1)N1CCC(N2CCN(C3CCN(C(=O)c4cc(C(F)(F)F)cc(C(F)(F)F)c4)C(Cc4ccccc4)C3)CC2)C1 (single isomer, unassigned) [Compound 403]	0.00794 µM	2.51 µM	2.51 µM
O=C(c1cc(C(F)(F)F)cc(C(F)(F)F)c1)N1CC[C@H](N2CCN(C3CCN(c4cnccn4)C3)CC2)C[C@H]1Cc1ccccc1 (stereo partly drawn) [Compound 4]	0.0251 µM	0.158 µM	6.31 µM
O=C(c1cc(C(F)(F)F)cc(C(F)(F)F)c1)N1CCC(N2CCN(C3CCN(c4ncccn4)C3)CC2)CC1Cc1ccccc1 (stereo not drawn) [Compound 5]	0.0316 µM	0.631 µM	6.31 µM
Cc1ccccc1C(=O)N1CCC(N2CCN([C@H]3CCN(C(=O)c4cc(C(F)(F)F)cc(C(F)(F)F)c4)[C@H](Cc4ccccc4)C3)CC2)C1 (stereo partly drawn) [Compound 13]	0.0251 µM	0.2 µM	3.98 µM
COc1ccccc1C(=O)N1CCC(N2CCN([C@H]3CCN(C(=O)c4cc(C(F)(F)F)cc(C(F)(F)F)c4)[C@H](Cc4ccccc4)C3)CC2)C1 (stereo partly drawn) [Compound 14]	0.00794 µM	0.316 µM	5.01 µM
O=C(c1ccccc1F)N1CCC(N2CCN([C@H]3CCN(C(=O)c4cc(C(F)(F)F)cc(C(F)(F)F)c4)[C@H](Cc4ccccc4)C3)CC2)C1 (stereo partly drawn) [Compound 16]	0.0316 µM	2.51 µM	5.01 µM
O=C(c1ccccc1Cl)N1CCC(N2CCN([C@H]3CCN(C(=O)c4cc(C(F)(F)F)cc(C(F)(F)F)c4)[C@H](Cc4ccccc4)C3)CC2)C1 (stereo partly drawn) [Compound 17]	0.0158 µM	0.251 µM	7.94 µM
Cc1cccc(C(=O)N2CCC(N3CCN([C@H]4CCN(C(=O)c5cc(C(F)(F)F)cc(C(F)(F)F)c5)[C@H](Cc5ccccc5)C4)CC3)C2)c1C (stereo partly drawn) [Compound 19]	0.0398 µM	0.398 µM	7.94 µM
O=C(c1cc(F)ccc1F)N1CCC(N2CCN([C@H]3CCN(C(=O)c4cc(C(F)(F)F)cc(C(F)(F)F)c4)[C@H](Cc4ccccc4)C3)CC2)C1 (stereo partly drawn) [Compound 21]	0.0126 µM	0.398 µM	5.01 µM
Cn1ccc(C(=O)N2CCC(N3CCN([C@H]4CCN(C(=O)c5cc(C(F)(F)F)cc(C(F)(F)F)c5)[C@H](Cc5ccccc5)C4)CC3)C2)c1 (stereo partly drawn) [Compound 23]	0.0316 µM	0.501 µM	3.16 µM
Cn1cccc1C(=O)N1CCC(N2CCN([C@H]3CCN(C(=O)c4cc(C(F)(F)F)cc(C(F)(F)F)c4)[C@H](Cc4ccccc4)C3)CC2)C1 (stereo partly drawn) [Compound 24]	0.0251 µM	0.251 µM	6.31 µM
O=C(c1cn[nH]c1)N1CCC(N2CCN([C@H]3CCN(C(=O)c4cc(C(F)(F)F)cc(C(F)(F)F)c4)[C@H](Cc4ccccc4)C3)CC2)C1 (stereo partly drawn) [Compound 25]	0.02 µM	5.01 µM	5.01 µM
Cc1cc(C(=O)N2CCC(N3CCN([C@H]4CCN(C(=O)c5cc(C(F)(F)F)cc(C(F)(F)F)c5)[C@H](Cc5ccccc5)C4)CC3)C2)n(C)n1 (stereo partly drawn) [Compound 26]	0.01 µM	0.158 µM	1.58 µM
Cc1cc(C(=O)N2CCC(N3CCN([C@H]4CCN(C(=O)c5cc(C(F)(F)F)cc(C(F)(F)F)c5)[C@H](Cc5ccccc5)C4)CC3)C2)n(C(C)(C)C)n1 (stereo partly drawn) [Compound 27]	0.0158 µM	0.316 µM	0.631 µM
O=C(c1cnccn1)N1CCC(N2CCN([C@H]3CCN(C(=O)c4cc(C(F)(F)F)cc(C(F)(F)F)c4)[C@H](Cc4ccccc4)C3)CC2)C1 (stereo partly drawn) [Compound 30]	0.0316 µM	1 µM	3.98 µM
O=C(c1ccoc1)N1CCC(N2CCN([C@H]3CCN(C(=O)c4cc(C(F)(F)F)cc(C(F)(F)F)c4)[C@H](Cc4ccccc4)C3)CC2)C1 (stereo partly drawn) [Compound 34]	0.02 µM	0.316 µM	3.16 µM
O=C(c1ccco1)N1CCC(N2CCN([C@H]3CCN(C(=O)c4cc(C(F)(F)F)cc(C(F)(F)F)c4)[C@H](Cc4ccccc4)C3)CC2)C1 (stereo partly drawn) [Compound 35]	0.0251 µM	0.2 µM	3.98 µM
O=C(c1ccsc1)N1CCC(N2CCN([C@H]3CCN(C(=O)c4cc(C(F)(F)F)cc(C(F)(F)F)c4)[C@H](Cc4ccccc4)C3)CC2)C1 (stereo partly drawn) [Compound 41]	0.0158 µM	0.2 µM	1.58 µM
Cc1ccc(C(=O)N2CCC(N3CCN([C@H]4CCN(C(=O)c5cc(C(F)(F)F)cc(C(F)(F)F)c5)[C@H](Cc5ccccc5)C4)CC3)C2)s1 (stereo partly drawn) [Compound 43]	0.0251 µM	0.631 µM	7.94 µM
O=C(c1cc(Cl)sc1Cl)N1CCC(N2CCN([C@H]3CCN(C(=O)c4cc(C(F)(F)F)cc(C(F)(F)F)c4)[C@H](Cc4ccccc4)C3)CC2)C1 (stereo partly drawn) [Compound 44]	0.0501 µM	0.631 µM	6.31 µM
Cc1cc(C(=O)N2CCC(N3CCN([C@H]4CCN(C(=O)c5cc(C(F)(F)F)cc(C(F)(F)F)c5)[C@H](Cc5ccccc5)C4)CC3)C2)no1 (stereo partly drawn) [Compound 46]	0.0316 µM	1.26 µM	3.98 µM
Cc1onc(-c2c(Cl)cccc2Cl)c1C(=O)N1CCC(N2CCN([C@H]3CCN(C(=O)c4cc(C(F)(F)F)cc(C(F)(F)F)c4)[C@H](Cc4ccccc4)C3)CC2)C1 (stereo partly drawn) [Compound 49]	0.0251 µM	0.251 µM	3.16 µM
O=C(c1c[nH]c2ccccc12)N1CCC(N2CCN([C@H]3CCN(C(=O)c4cc(C(F)(F)F)cc(C(F)(F)F)c4)[C@H](Cc4ccccc4)C3)CC2)C1 (stereo partly drawn) [Compound 56]	0.0398 µM	0.126 µM	3.16 µM
O=C(C(=O)N1CCC(N2CCN(C3CCN(C(=O)c4cc(C(F)(F)F)cc(C(F)(F)F)c4)C(Cc4ccccc4)C3)CC2)C1)c1ccco1 (stereo not drawn) [Compound 64]	0.0501 µM	0.158 µM	2.51 µM
O=C(Cc1ccco1)N1CCC(N2CCN([C@H]3CCN(C(=O)c4cc(C(F)(F)F)cc(C(F)(F)F)c4)[C@H](Cc4ccccc4)C3)CC2)C1 (stereo partly drawn) [Compound 66]	0.0251 µM	0.398 µM	5.01 µM
O=C(Cc1cccs1)N1CCC(N2CCN([C@H]3CCN(C(=O)c4cc(C(F)(F)F)cc(C(F)(F)F)c4)[C@H](Cc4ccccc4)C3)CC2)C1 (stereo partly drawn) [Compound 67]	0.0251 µM	1 µM	3.98 µM
CC(C(=O)N1CCC(N2CCN([C@H]3CCN(C(=O)c4cc(C(F)(F)F)cc(C(F)(F)F)c4)[C@H](Cc4ccccc4)C3)CC2)C1)c1ccccc1 (stereo partly drawn) [Compound 69]	0.0126 µM	0.501 µM	0.631 µM

Source: patent US7795261B2, “Substituted 1-piperidin-4-yl-4-pyrrolidin-3-yl-piperazine derivatives and their use as neurokinin antagonists” (Janssen Pharmaceutica NV, priority 2002, dated 2010)
